Results reported in PubChem BioAssay (NCI).
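Where inhibition never reached the appropriate level, the endpoint shown equals the highest concentration tested. Otherwise, values were interpolated linearly from a five-concentration, 48-hour dose response in 96-well plates. TGI denotes the concentration required for complete inhibition of growth.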

Experiments:
Test in all cases: inhibition of tumour cell growth, NCI panel, 48 h
HCT-116 colon = tested on: HCT-116 colon
MDA-MB-435 = tested on: MDA-MB-435
IGROV1 ovarian = tested on: IGROV1 ovarian
NCI-H460 lung = tested on: NCI-H460 lung
OVCAR-4 ovarian = tested on: OVCAR-4 ovarian
MOLT-4 leukemia = tested on: MOLT-4 leukemia
MCF7 breast = tested on: MCF7 breast
T-47D breast = tested on: T-47D breast
NCI/ADR-RES ovarian = tested on: NCI/ADR-RES ovarian
SK-MEL-28 melanoma = tested on: SK-MEL-28 melanoma
SF-539 CNS = tested on: SF-539 CNS
786-0 renal = tested on: 786-0 renal
DU-145 prostate = tested on: DU-145 prostate
SK-MEL-2 melanoma = tested on: SK-MEL-2 melanoma
SK-OV-3 ovarian = tested on: SK-OV-3 ovarian
M14 melanoma = tested on: M14 melanoma
OVCAR-5 ovarian = tested on: OVCAR-5 ovarian
OVCAR-3 ovarian = tested on: OVCAR-3 ovarian
CAKI-1 renal = tested on: CAKI-1 renal
SK-MEL-5 melanoma = tested on: SK-MEL-5 melanoma
KM12 colon = tested on: KM12 colon
SNB-75 CNS = tested on: SNB-75 CNS
OVCAR-8 ovarian = tested on: OVCAR-8 ovarian
K-562 leukemia = tested on: K-562 leukemia
SF-268 CNS = tested on: SF-268 CNS
U251 CNS = tested on: U251 CNS
UACC-257 melanoma = tested on: UACC-257 melanoma
HOP-92 NSCLC = tested on: HOP-92 NSCLC
COLO 205 colon = tested on: COLO 205 colon
RXF 393 renal = tested on: RXF 393 renal
SF-295 CNS = tested on: SF-295 CNS
ACHN renal = tested on: ACHN renal
MDA-N = tested on: MDA-N
NCI-H226 lung = tested on: NCI-H226 lung
PC-3 prostate = tested on: PC-3 prostate
BT-549 breast = tested on: BT-549 breast
NCI-H522 lung = tested on: NCI-H522 lung
HCC-2998 colon = tested on: HCC-2998 colon
UO-31 renal = tested on: UO-31 renal
A498 renal = tested on: A498 renal
A549 NSCLC = tested on: A549 NSCLC
SNB-19 CNS = tested on: SNB-19 CNS
HT29 colon = tested on: HT29 colon
MDA-MB-231 breast = tested on: MDA-MB-231 breast
HL-60(TB) leukemia = tested on: HL-60(TB) leukemia
SR leukemia = tested on: SR leukemia
HOP-62 NSCLC = tested on: HOP-62 NSCLC
HCT-15 colon = tested on: HCT-15 colon
RPMI-8226 leukemia = tested on: RPMI-8226 leukemia
UACC-62 melanoma = tested on: UACC-62 melanoma
SN12C renal = tested on: SN12C renal
TK-10 renal = tested on: TK-10 renal
SW-620 colon = tested on: SW-620 colon
EKVX NSCLC = tested on: EKVX NSCLC
LOX IMVI melanoma = tested on: LOX IMVI melanoma
MALME-3M melanoma = tested on: MALME-3M melanoma
HS 578T breast = tested on: HS 578T breast
NCI-H23 lung = tested on: NCI-H23 lung
CCRF-CEM leukemia = tested on: CCRF-CEM leukemia

`S=c1[nH]n2c(COc3cc(Cl)c(OCc4nnc5sc(=S)[nH]n45)cc3Cl)nnc2s1` gave a TGI (HCT-116 colon) of over 100 µM, a TGI (MDA-MB-435) of over 100 µM and a TGI (IGROV1 ovarian) of over 100 µM. It also gave a TGI (NCI-H460 lung) of over 100 µM, a TGI (OVCAR-4 ovarian) of over 100 µM and a TGI (MOLT-4 leukemia) of over 100 µM. It also gave a TGI (MCF7 breast) of 40.8 µM, a TGI (T-47D breast) of over 100 µM and a TGI (NCI/ADR-RES ovarian) of over 100 µM. For the same compound, the TGI (SK-MEL-28 melanoma) was over 100 µM, the TGI (SF-539 CNS) was over 100 µM and the TGI (786-0 renal) was over 100 µM. For the same compound, the TGI (DU-145 prostate) was over 100 µM, the TGI (SK-MEL-2 melanoma) was over 100 µM and the TGI (SK-OV-3 ovarian) was over 100 µM. The TGI (M14 melanoma) was over 100 µM, the TGI (OVCAR-5 ovarian) was over 100 µM and the TGI (OVCAR-3 ovarian) was over 100 µM. It also gave a TGI (CAKI-1 renal) of over 100 µM, a TGI (SK-MEL-5 melanoma) of over 100 µM and a TGI (KM12 colon) of over 100 µM. It also gave a TGI (SNB-75 CNS) of over 100 µM, a TGI (OVCAR-8 ovarian) of over 100 µM and a TGI (K-562 leukemia) of over 100 µM. For the same compound, the TGI (SF-268 CNS) was over 100 µM, the TGI (U251 CNS) was over 100 µM and the TGI (UACC-257 melanoma) was over 100 µM. It also gave a TGI (HOP-92 NSCLC) of over 100 µM, a TGI (COLO 205 colon) of over 100 µM and a TGI (RXF 393 renal) of over 100 µM. The TGI (SF-295 CNS) was over 100 µM, the TGI (ACHN renal) was over 100 µM and the TGI (MDA-N) was over 100 µM. It also gave a TGI (NCI-H226 lung) of over 100 µM, a TGI (PC-3 prostate) of over 100 µM and a TGI (BT-549 breast) of over 100 µM. It also gave a TGI (NCI-H522 lung) of 53.9 µM, a TGI (HCC-2998 colon) of over 100 µM and a TGI (UO-31 renal) of 86.4 µM. For the same compound, the TGI (A498 renal) was over 100 µM, the TGI (A549 NSCLC) was over 100 µM and the TGI (SNB-19 CNS) was over 100 µM. It also gave a TGI (HT29 colon) of over 100 µM, a TGI (MDA-MB-231 breast) of over 100 µM and a TGI (HL-60(TB) leukemia) of over 100 µM. It also gave a TGI (SR leukemia) of over 100 µM, a TGI (HOP-62 NSCLC) of over 100 µM and a TGI (HCT-15 colon) of over 100 µM. It also gave a TGI (RPMI-8226 leukemia) of over 100 µM, a TGI (UACC-62 melanoma) of 83.9 µM and a TGI (SN12C renal) of over 100 µM. The TGI (TK-10 renal) was over 100 µM, the TGI (SW-620 colon) was over 100 µM and the TGI (EKVX NSCLC) was over 100 µM. The TGI (LOX IMVI melanoma) was over 100 µM, the TGI (MALME-3M melanoma) was over 100 µM and the TGI (HS 578T breast) was over 100 µM. The TGI (NCI-H23 lung) was over 100 µM.
`COC(=O)c1ccccc1C1CN=NC12Cc1c(C)ccc(C)c1C2=O` (stereo not given) gave a TGI (HCT-116 colon) of over 100 µM, a TGI (MDA-MB-435) of over 100 µM and a TGI (IGROV1 ovarian) of over 100 µM. For the same compound, the TGI (NCI-H460 lung) was over 100 µM, the TGI (OVCAR-4 ovarian) was over 100 µM and the TGI (MOLT-4 leukemia) was over 100 µM. For the same compound, the TGI (MCF7 breast) was over 100 µM, the TGI (T-47D breast) was over 100 µM and the TGI (NCI/ADR-RES ovarian) was over 100 µM. The TGI (SK-MEL-28 melanoma) was over 100 µM, the TGI (SF-539 CNS) was over 100 µM and the TGI (786-0 renal) was over 100 µM. The TGI (DU-145 prostate) was over 100 µM, the TGI (SK-MEL-2 melanoma) was over 100 µM and the TGI (SK-OV-3 ovarian) was over 100 µM. It also gave a TGI (M14 melanoma) of over 100 µM, a TGI (OVCAR-5 ovarian) of over 100 µM and a TGI (OVCAR-3 ovarian) of over 100 µM. For the same compound, the TGI (CAKI-1 renal) was over 100 µM, the TGI (SK-MEL-5 melanoma) was over 100 µM and the TGI (KM12 colon) was over 100 µM. For the same compound, the TGI (SNB-75 CNS) was over 100 µM, the TGI (OVCAR-8 ovarian) was over 100 µM and the TGI (K-562 leukemia) was over 100 µM. It also gave a TGI (SF-268 CNS) of over 100 µM, a TGI (U251 CNS) of over 100 µM and a TGI (UACC-257 melanoma) of over 100 µM. For the same compound, the TGI (HOP-92 NSCLC) was over 100 µM, the TGI (COLO 205 colon) was over 100 µM and the TGI (RXF 393 renal) was over 100 µM. It also gave a TGI (SF-295 CNS) of over 100 µM, a TGI (ACHN renal) of over 100 µM and a TGI (MDA-N) of over 100 µM. The TGI (CCRF-CEM leukemia) was over 100 µM, the TGI (NCI-H226 lung) was over 100 µM and the TGI (PC-3 prostate) was over 100 µM. It also gave a TGI (BT-549 breast) of over 100 µM, a TGI (NCI-H522 lung) of over 100 µM and a TGI (HCC-2998 colon) of over 100 µM. For the same compound, the TGI (UO-31 renal) was over 100 µM, the TGI (A498 renal) was over 100 µM and the TGI (A549 NSCLC) was over 100 µM. The TGI (SNB-19 CNS) was over 100 µM, the TGI (HT29 colon) was over 100 µM and the TGI (MDA-MB-231 breast) was over 100 µM. The TGI (HL-60(TB) leukemia) was over 100 µM, the TGI (HOP-62 NSCLC) was over 100 µM and the TGI (HCT-15 colon) was over 100 µM. The TGI (UACC-62 melanoma) was over 100 µM, the TGI (SN12C renal) was over 100 µM and the TGI (TK-10 renal) was over 100 µM. It also gave a TGI (SW-620 colon) of over 100 µM, a TGI (EKVX NSCLC) of over 100 µM and a TGI (LOX IMVI melanoma) of over 100 µM. For the same compound, the TGI (MALME-3M melanoma) was over 100 µM, the TGI (HS 578T breast) was over 100 µM and the TGI (NCI-H23 lung) was over 100 µM.
